# Test results published in US6482850B2, “Hydrolysis-promoting hydrophobic taxane derivatives” (priority 1995, dated 2002).
# Read-outs that look alike come from different tables or passages of the source.
# Tests used:
# [1] = test system: MCF-7/ADR (adriamycin-resistant); assay: In vitro sensitivity, sulforhodamine B cytotoxicity assay, MCF-7/ADR (Table 2); format: cell-based, human; conditions: 72-hour incubation; averaged from two separate experiments
# [2] = test system: MCF-7 human breast carcinoma; assay: In vitro sensitivity, sulforhodamine B cytotoxicity assay, MCF-7 (Table 2); format: cell-based; conditions: 72-hour incubation; averaged from two separate experiments
# [3] = test system: CDF1 mice; assay: In vivo toxicity, i.v. x 5, non-tumor bearing mice; conditions: 30 days observation
# Description: A separate group (n=5) was injected with concentrations of Cremophor® EL and ethanol (in PBS) equivalent to the highest concentration of the test treatment. Mortality was recorded daily and body weights taken at least twice weekly for an observation period of 30 days.
# [4] = test system: A549 human NSCLC; assay: i.p. A549 tumor, i.p. treatment, survival; conditions: for % ILS / LTS/n / MST Days + SEM / Median survival time: treatment days 1, 3, 5, 7 and 9 i.p.
# Description: Note that long-term survivors (mice that survived through day 300 after cell inoculation) were not included in mean, median, or % ILS calculations.
# SCID mice (6/group) were injected with 5×10^6 A549 human NSCLC cells i.p. (day 0).
# [5] = test system: A549 cancer cells
# Description: Briefly, 96-well microtiter plates were inoculated (100 μL/well) with 5×10^3 (A549) or 7.5×10^3 (OVCAR-3) cells/well, in RPMI-1640 supplemented with 10% FBS (growth media). The plates were incubated for 24 hr at 37° C., 100% humidity and 5% CO2. At 24 hours, growth media (100 μL) was added to designated “time zero” plates. Similarly, serial dilutions of drug or vehicle (in media) were added (100 μL aliquots) to the test and vehicle control wells at twice the predetermined highest concentration. There were triplicate wells on each plate and duplicate plates (total 6 wells) for each drug concentration. The test plates were incubated as above for 72 hr. Cells (including time zero plates) were then fixed with 50 μL of 50% trichloroacetic acid (TCA) (w:v) for adherent cells or 80% TCA for suspended cells, and plates refrigerated at 4° C. for 1 hr. The supernatant was discarded (suspended cell plates were first centrifuged) and the wells rinsed six times with tap water and air-dried. One hundred microliters of 0.4% SRB in 1% acetic acid were added to each well and the plates were incubated under ambient (RT) conditions for 10 min. Unbound stain was removed by rinsing the wells three times with 1% acetic acid. The plates were then air-dried for 24 hr. The bound stain was solubilized with 100 μL of 10 mM Tris buffer and the optical density was read spectrophotometrically at 490 nm (Microplate Reader Model 3550-UV, Bio-Rad, Hercules, Calif.). Percent growth was calculated as follows: (T-T0) / (C-T0)×100; where (T)=mean optical density of treated wells at a given drug concentration, (T0)=mean optical density of time zero wells, and (C)=mean optical density of control wells.
# [6] = test system: OVCAR-3 cancer cells; conditions: read-out: GI50 ± S.D. OVCAR-3; 72 hr, SRB assay
# Description: Briefly, 96-well microtiter plates were inoculated (100 μL/well) with 5×10^3 (A549) or 7.5×10^3 (OVCAR-3) cells/well, in RPMI-1640 supplemented with 10% FBS (growth media). The plates were incubated for 24 hr at 37° C., 100% humidity and 5% CO2. At 24 hours, growth media (100 μL) was added to designated “time zero” plates. Similarly, serial dilutions of drug or vehicle (in media) were added (100 μL aliquots) to the test and vehicle control wells at twice the predetermined highest concentration. There were triplicate wells on each plate and duplicate plates (total 6 wells) for each drug concentration. The test plates were incubated as above for 72 hr. Cells (including time zero plates) were then fixed with 50 μL of 50% trichloroacetic acid (TCA) (w:v) for adherent cells or 80% TCA for suspended cells, and plates refrigerated at 4° C. for 1 hr. […] The bound stain was solubilized with 100 μL of 10 mM Tris buffer and the optical density was read spectrophotometrically at 490 nm (Microplate Reader Model 3550-UV, Bio-Rad, Hercules, Calif.). Percent growth was calculated as follows: (T-T0) / (C-T0)×100; where (T)=mean optical density of treated wells at a given drug concentration, (T0)=mean optical density of time zero wells, and (C)=mean optical density of control wells.
# [7] = test system: A549 human lung cancer; assay: s.c. A549 tumor, i.v. treatment, tumor volume (FIG. 8); format: in vivo, mice
# Text: Mice were sacrificed when the average tumor volume of the group reached 1500 mm^3.
# [8] = Description: The 20 mg/mL formulation was further diluted to 6 mg/mL in 5% dextrose. […] At 0h, 24h, 1, 2, 3, 4, and 5 weeks samples were chromatographically analyzed by diluting the drugs to 1 mg/mL with 5% dextrose and then mixing 1:1 with acetonitrile. The chromatographic system consisted of a Shimadzu LC100 system with a UV detector. The column used was an Inertsil-ODS2, 150 ×4.6 mm (5 micron particle size) from Keystone Scientific (Bellefonte, Pa.). 20 μL of each sample was injected and read at 227 nm at ambient temperature. […] The constant flow rate was 1 mL/min.
# [9] = test system: A-549 human lung carcinoma; assay: In vitro sensitivity, sulforhodamine B cytotoxicity assay, A-549 (Table 2); format: cell-based; conditions: 72-hour incubation; averaged from two separate experiments
# Description: Briefly, 96-well microtiter plates were inoculated (100 μL/well) with 5×10^3 (A549) or 7.5×10^3 (OVCAR-3) cells/well, in RPMI-1640 supplemented with 10% FBS (growth media). The plates were incubated for 24 hr at 37° C., 100% humidity and 5% CO2. At 24 hours, growth media (100 μL) was added to designated “time zero” plates. Similarly, serial dilutions of drug or vehicle (in media) were added (100 μL aliquots) to the test and vehicle control wells at twice the predetermined highest concentration. […] Cells (including time zero plates) were then fixed with 50 μL of 50% trichloroacetic acid (TCA) (w:v) for adherent cells or 80% TCA for suspended cells, and plates refrigerated at 4° C. for 1 hr. […] The plates were then air-dried for 24 hr.
# [10] = test system: CDF1 female mice; assay: Acute toxicity of liposomal paclitaxel or paclitaxel derivative given intraperitoneally; conditions: i.p.; for number of mice that died within the first 14 days post-injection/total: liposomes
# Description: Moreover, liposomes containing either paclitaxel or a 2′-(2-bromo) hydrophobic paclitaxel derivative (containing either a six-carbon (C-6), C-8, C-12, C-14 or C-16 acyl chain at the 2′ position) were administered, intraperitoneally in 5 doses, to SCID (severe combined inimunodeficiency) mice bearing a human ovarian cancer (OvCar 3), at a dose of 12.5 mg paclitaxel per kg or a dose of 50 mg paclitaxel derivative per kg.
# CDF1 female mice, 5 or 10 mice per group, were intraperitoneally administered either paclitaxel-, 2′-C6-paclitaxel derivative-, or 2′-C16-paclitaxel derivative-containing liposomes, in a single dose, or 5 doses, of either 12.5, 25, 50, 100, 200, 300. 400 or 500 mg of paclitaxel or paclitaxel derivative per kg of mouse body weight.
# [11] = test system: HT-29 human colon carcinoma cells; assay: In vitro sensitivity, sulforhodamine B cytotoxicity assay, HT-29 (Table 2); format: cell-based; conditions: 72-hour incubation; averaged from two separate experiments
# [12] = test system: OVCAR-3 human ovarian cancer; assay: s.c. OVCAR-3 tumor, i.v. treatment, tumor volume (FIG. 7); format: in vivo, mice
# Description: OVCAR-3 human ovarian cancer.
# The tumor volume (mm^3) from tumor measurement was calculated: (Length * (Width/2)^2 * π). Mice were sacrificed when the average tumor volume of the group reached 1500 mm^3.
# [13] = test system: OVCAR-3 human ovarian cancer; assay: i.p. OVCAR-3 tumor, i.v. treatment, survival (FIG. 6); format: in vivo, mice
# Description: Mice were observed daily for mortality and % ILS was calculated as described above.
smiles,measurement,setting,value
"CCCCCCCCCCCCCC[C@@H](Br)C(=O)O[C@@H](C(=O)O[C@H]1C[C@@]2(O)[C@@H](OC(=O)c3ccccc3)[C@@H]3[C@]4(OC(C)=O)CO[C@@H]4C[C@H](O)[C@@]3(C)C(=O)[C@H](OC(C)=O)C(=C1C)C2(C)C)[C@@H](NC(=O)c1ccccc1)c1ccccc1 [BrC16HT, 2′-(R)-[2-bromohexadecanoyl] paclitaxel]",GI50,[1],> 10 µM
same,GI50,[2],0.071 µM
same,Number of Mice surviving/Total,"[3]; i.v. days 1 through 5, 12.5 mg/kg",10/10
same,Number of Mice surviving/Total,"[3]; i.v. days 1 through 5, 25 mg/kg",9/10
same,Number of Mice surviving/Total,"[3]; i.v. days 1 through 5, 37.5 mg/kg",0/10
same,Number of Mice surviving/Total,"[3]; i.v. days 1 through 5, 50 mg/kg",0/10
same,survival time of tumor-bearing mice vs. control,"[4]; i.p. on days 1, 3, 5, 7 & 9",significantly (p<0.05 vs. control) increased the survival time
same,% ILS,[4]; 25 mg/kg,247%
same,LTS/n,[4]; 25 mg/kg,0/6
same,MST Days + SEM,[4]; 25 mg/kg,117 + 8 Days
same,Median survival time,[4]; 25 mg/kg,112 days
same,% ILS,[4]; 50 mg/kg,450%
same,LTS/n,[4]; 50 mg/kg,0/6
same,MST Days + SEM,[4]; 50 mg/kg,186 + 30 Days
same,Median survival time,[4]; 50 mg/kg,171 days
same,GI50 relative to Taxol®,"[5]; in both cell lines (A549, OVCAR-3)",approximately ten times higher than Taxol®
same,GI50,"[5]; read-out: GI50 ± S.D. A549, 72 hr, SRB assay",0.029 ± 0.0059 µM
same,GI50,[6],0.02 ± 0.0033 µM
same,efficacy compared with Taxol® at 25 mg/kg,"[7]; all early treatment schedules (FIGS. 8a-c), BrC16HT at 12.5 or 25 mg/kg i.v.",more effective than Taxol® at 25 mg/kg
same,tumor regression compared with Taxol®,"[7]; delayed schedule, days 20, 22, 24, 26 and 28, 25 mg/kg i.v. (FIG. 8d)",greater and more prolonged tumor regression
same,tumor growth vs. control,"[7]; i.v., independent of the dose schedule, BrC16HT 12.5-25 mg/kg, Taxol® 25 mg/kg",significantly (p <0.05 vs. control) inhibited the tumor growth
same,Percentage of BrC16HT in Sample,"[8]; 6 mg/mL in Crem/EtOH (50:50), undiluted, storage 4° C., 0 h",93%
same,Percentage of BrC16HT in Sample,"[8]; 6 mg/mL in Crem/EtOH (50:50), undiluted, storage 4° C., 1 Week",83%
same,Percentage of BrC16HT in Sample,"[8]; 6 mg/mL in Crem/EtOH (50:50), undiluted, storage 4° C., 2 Week",93%
same,Percentage of BrC16HT in Sample,"[8]; 6 mg/mL in Crem/EtOH (50:50), undiluted, storage 4° C., 3 Week",61%
same,Percentage of BrC16HT in Sample,"[8]; 6 mg/mL in Crem/EtOH (50:50), undiluted, storage 4° C., 4 Week",58%
same,Percentage of BrC16HT in Sample,"[8]; 6 mg/mL in Crem/EtOH (50:50), undiluted, storage 4° C., 5 Week",53%
same,Percentage of BrC16HT in Sample,"[8]; 6 mg/mL in Crem/EtOH (50:50), undiluted, storage 4° C., 24 h",89%
same,Percentage of BrC16HT in Sample,"[8]; 6 mg/mL in Crem/EtOH (50:50), undiluted, storage 26° C., 0 h",95%
same,Percentage of BrC16HT in Sample,"[8]; 6 mg/mL in Crem/EtOH (50:50), undiluted, storage 26° C., 1 Week",42%
same,Percentage of BrC16HT in Sample,"[8]; 6 mg/mL in Crem/EtOH (50:50), undiluted, storage 26° C., 2 Week",22%
same,Percentage of BrC16HT in Sample,"[8]; 6 mg/mL in Crem/EtOH (50:50), undiluted, storage 26° C., 3 Week",14%
same,Percentage of BrC16HT in Sample,"[8]; 6 mg/mL in Crem/EtOH (50:50), undiluted, storage 26° C., 4 Week",8%
same,Percentage of BrC16HT in Sample,"[8]; 6 mg/mL in Crem/EtOH (50:50), undiluted, storage 26° C., 5 Week",5%
same,Percentage of BrC16HT in Sample,"[8]; 6 mg/mL in Crem/EtOH (50:50), undiluted, storage 26° C., 24 h",84%
same,Percentage of BrC16HT in Sample,"[8]; 20 mg/mL in Crem/EtOH (50:50) diluted with 5% dextrose to 6 mg/mL, storage 4° C., 0 h",92%
same,Percentage of BrC16HT in Sample,"[8]; 20 mg/mL in Crem/EtOH (50:50) diluted with 5% dextrose to 6 mg/mL, storage 4° C., 1 Week",90%
same,Percentage of BrC16HT in Sample,"[8]; 20 mg/mL in Crem/EtOH (50:50) diluted with 5% dextrose to 6 mg/mL, storage 4° C., 2 Week",88%
same,Percentage of BrC16HT in Sample,"[8]; 20 mg/mL in Crem/EtOH (50:50) diluted with 5% dextrose to 6 mg/mL, storage 4° C., 3 Week",83%
same,Percentage of BrC16HT in Sample,"[8]; 20 mg/mL in Crem/EtOH (50:50) diluted with 5% dextrose to 6 mg/mL, storage 4° C., 4 Week",85%
same,Percentage of BrC16HT in Sample,"[8]; 20 mg/mL in Crem/EtOH (50:50) diluted with 5% dextrose to 6 mg/mL, storage 4° C., 5 Week",82%
same,Percentage of BrC16HT in Sample,"[8]; 20 mg/mL in Crem/EtOH (50:50) diluted with 5% dextrose to 6 mg/mL, storage 4° C., 24 h",91%
same,Percentage of BrC16HT in Sample,"[8]; 20 mg/mL in Crem/EtOH (50:50) diluted with 5% dextrose to 6 mg/mL, storage 26° C., 0 h",97%
same,Percentage of BrC16HT in Sample,"[8]; 20 mg/mL in Crem/EtOH (50:50) diluted with 5% dextrose to 6 mg/mL, storage 26° C., 1 Week",93%
same,Percentage of BrC16HT in Sample,"[8]; 20 mg/mL in Crem/EtOH (50:50) diluted with 5% dextrose to 6 mg/mL, storage 26° C., 2 Week",90%
same,Percentage of BrC16HT in Sample,"[8]; 20 mg/mL in Crem/EtOH (50:50) diluted with 5% dextrose to 6 mg/mL, storage 26° C., 3 Week",81%
same,Percentage of BrC16HT in Sample,"[8]; 20 mg/mL in Crem/EtOH (50:50) diluted with 5% dextrose to 6 mg/mL, storage 26° C., 4 Week",88%
same,Percentage of BrC16HT in Sample,"[8]; 20 mg/mL in Crem/EtOH (50:50) diluted with 5% dextrose to 6 mg/mL, storage 26° C., 5 Week",87%
same,Percentage of BrC16HT in Sample,"[8]; 20 mg/mL in Crem/EtOH (50:50) diluted with 5% dextrose to 6 mg/mL, storage 26° C., 24 h",99%
same,GI50,[9],0.127 µM
same,relative acute toxicity of the liposomes,[10]; CDF1 mice,less toxic than were the 2-bromo-C6 paclitaxel derivative-containing liposomes
same,number of mice that died within the first 14 days post-injection/total,[10]; single dose 300 mg/kg,1/5
same,number of mice that died within the first 14 days post-injection/total,[10]; single dose 400 mg/kg,1/5
same,number of mice that died within the first 14 days post-injection/total,[10]; single dose 500 mg/kg,0/5
same,GI50,[11],0.0595 µM
same,delaying tumor growth,"[12]; 12.5 mg/kg i.v. on days 1, 3, 5, 7 & 9",approximately 79 days
same,tumor growth suppression,"[12]; 25 mg/kg i.v. on days 1, 3, 5, 7 & 9",suppressed tumor growth completely up to 120 days post-implantation
same,tumor growth vs. control,"[12]; i.v. on days 1, 3, 5, 7 & 9, BrC16HT 12.5-25 mg/kg, Taxol® 25 mg/kg",significantly (p<0.05 vs. control) inhibited the tumor growth
same,medium survival times,"[13]; 12.5 mg/kg i.v. on days 20, 22, 24, 26 & 28",182 days
same,survival time compared to controls,"[13]; 25 mg/kg i.v. on days 20, 22, 24, 26 & 28",significantly prolonged compared to controls (p<0.0001)
same,survival time vs. control,"[13]; 12.5 or 25 mg/kg i.v. on days 1, 3, 5, 7, 9, 42, 44, 46, 48 & 50 (FIG. 6a)",significantly (p<0.05 vs. control) increased the survival time
same,efficacy compared with Taxol®,"[13]; 12.5 or 25 mg/kg i.v., FIG. 6a schedule",more effective than Taxol®
same,survival time vs. control,"[13]; i.v. on days 20, 22, 24, 26 & 28, BrC16HT 12.5 or 25 mg/kg, Taxol® 12.5 mg/kg (FIG. 6b)",significantly (p<0.05 vs. control) increased the survival time
